How the values were obtained:
rat [1] = conditions: Combined chronic toxicity/carcinogenicity; sprague dawley; Oral; Feed; dose end: 104 week; group: systemic; systemic / in life observation / body weight / body weight gain + systemic / pathology microscopic / kidney / concretion + systemic / …
rat [2] = conditions: Multigenerational reproductive toxicity study, sprague dawley, Oral, Feed, dose end: 2 generation
rabbit [3] = conditions: Prenatal developmental toxicity study, new zealand white, Oral, Gavage/Intubation, dose end: 19 GD, group: maternal
dog [4] = conditions: Chronic toxicity, beagle, Oral, Feed, dose end: 106 week, group: systemic
dog [5] = conditions: Chronic toxicity, beagle, Oral, Feed, dose end: 12 month
rabbit [6] = conditions: Prenatal developmental toxicity study; new zealand white; Oral; Gavage/Intubation; dose end: 19 GD; group: maternal; reproductive / reproductive performance / postimplantation loss / postimplantation loss + reproductive / reproductive performance / …
mouse = conditions: Carcinogenicity, cd1, Oral, Feed, dose end: 18 month, group: systemic
dog [7] = conditions: Subchronic oral toxicity in nonrodent, beagle, Feed, dose end: 90 day, group: systemic
rat [8] = conditions: Combined chronic toxicity/carcinogenicity, fischer, Oral, Feed, dose end: 2 year, group: systemic
rat [9] = conditions: Multigenerational reproductive toxicity study, sprague dawley, Oral, Feed, dose end: 2 generation; remark: listed apart in the source
[10] = group: offspring, systemic / in life observation / body weight / offspring (pup) weight
[11] = group: parental, systemic / in life observation / body weight / body weight + systemic / in life observation / body weight / body weight gain + systemic / in…
[12] = reproductive / reproductive performance / resorptions / resorptions + systemic / in life observation / food consumption / food consumption
[13] = systemic / pathology microscopic / bone marrow / atrophy + systemic / pathology microscopic / kidney / congestion + systemic / pathology …
[14] = group: reproductive, reproductive / reproductive performance / estrous cycle / periodicity
[15] = group: systemic, systemic / in life observation / body weight / body weight + systemic / in life observation / body weight / body weight gain + systemic / in…
[16] = group: systemic, systemic / pathology microscopic / uterus / estrus
[17] = systemic / organ weight / liver / nos + systemic / pathology microscopic / liver / eosinophilic focus + systemic / pathology microscopic / …
[18] = systemic / in life observation / body weight / body weight gain
[19] = systemic / in life observation / body weight / body weight gain + systemic / in life observation / food consumption / food consumption
[20] = systemic / pathology gross / stomach / discolored + systemic / pathology gross / stomach / foci + systemic / pathology gross / stomach / …
[21] = group: offspring, systemic / in life observation / body weight / offspring (pup) weight + developmental / offspring survival late / lactation index / …
[22] = group: parental, systemic / in life observation / food consumption / food consumption + systemic / in life observation / body weight / body weight + systemic…
[23] = group: reproductive, reproductive / offspring survival early / birth index / live birth index

**Q.** Which LEL (rat [1]) does the source give for CSc1nc(NC(C)C)nc(NC(C)C)n1 [Prometryn] here?
**A.** The LEL was 60.9 mg/kg/day.

**Q.** What about the LOAEL (rat [1]) of the same molecule?
**A.** Its LOAEL is 60.9 mg/kg/day.

**Q.** What about the NEL (rat [1]) of the same molecule?
**A.** The NEL was 29.4 mg/kg/day.

**Q.** And the NOAEL (rat [1])?
**A.** Its NOAEL is 29.4 mg/kg/day.

**Q.** And the LEL (rat [2]; [10])?
**A.** Its LEL is 47.8 mg/kg/day.

**Q.** What about the LOAEL (rat [2]; [10]) of the same molecule?
**A.** Its LOAEL is 47.8 mg/kg/day.

**Q.** And the NEL (rat [2]; [10])?
**A.** The NEL was 0.6 mg/kg/day.

**Q.** And the NOAEL (rat [2]; [10])?
**A.** Its NOAEL is 0.6 mg/kg/day.

**Q.** What about the LEL (rat [2]; [11]) of the same molecule?
**A.** Its LEL is 47.8 mg/kg/day.

**Q.** What about the LOAEL (rat [2]; [11]) of the same molecule?
**A.** Its LOAEL is 47.8 mg/kg/day.

**Q.** And the NEL (rat [2]; [11])?
**A.** The NEL was 0.6 mg/kg/day.

**Q.** And the NOAEL (rat [2]; [11])?
**A.** Its NOAEL is 0.6 mg/kg/day.

**Q.** What about the LOAEL (rabbit [3]; [12]) of the same molecule?
**A.** Its LOAEL is 72 mg/kg/day.

**Q.** And the NEL (rabbit [3]; [12])?
**A.** The NEL was 12 mg/kg/day.

**Q.** And the NOAEL (rabbit [3]; [12])?
**A.** The NOAEL was 12 mg/kg/day.

**Q.** And the LEL (rabbit [3]; reproductive / reproductive performance / resorptions / resorptions + systemic / in life observation / food consumption / food consumption…)?
**A.** The LEL was 72 mg/kg/day.

**Q.** What about the LOAEL (dog [4]; [13]) of the same molecule?
**A.** The LOAEL was 37.5 mg/kg/day.

**Q.** What about the NEL (dog [4]; [13]) of the same molecule?
**A.** Its NEL is 0.375 mg/kg/day.

**Q.** And the NOAEL (dog [4]; [13])?
**A.** Its NOAEL is 3.75 mg/kg/day.

**Q.** And the LEL (dog [4]; systemic / pathology microscopic / liver / cellular alteration + systemic / pathology microscopic / liver / depletion glycogen + systemic / …)?
**A.** Its LEL is 3.75 mg/kg/day.

**Q.** Which LEL (dog [5]; [14]) does the source give for CC(C)N(C(=O)CCl)c1ccccc1 [Propachlor] here?
**A.** The LEL was 0.625 mg/kg/day.

**Q.** And the LOAEL (dog [5]; [14])?
**A.** Its LOAEL is over 25 mg/kg/day.

**Q.** And the NEL (dog [5]; [14])?
**A.** Its NEL is under 0.625 mg/kg/day.

**Q.** What about the NOAEL (dog [5]; [14]) of the same molecule?
**A.** The NOAEL was at least 25 mg/kg/day.

**Q.** What about the LOAEL (dog [5]; [15]) of the same molecule?
**A.** The LOAEL was 25 mg/kg/day.

**Q.** And the NOAEL (dog [5]; [15])?
**A.** Its NOAEL is 6.25 mg/kg/day.

**Q.** What about the LEL (dog [5]; [16]) of the same molecule?
**A.** The LEL was 0.625 mg/kg/day.

**Q.** What about the NEL (dog [5]; [16]) of the same molecule?
**A.** The NEL was under 0.625 mg/kg/day.

**Q.** What about the LEL (rabbit [6]) of the same molecule?
**A.** The LEL was 50 mg/kg/day.

**Q.** What about the LOAEL (rabbit [6]) of the same molecule?
**A.** Its LOAEL is 50 mg/kg/day.

**Q.** And the NEL (rabbit [6])?
**A.** The NEL was 5 mg/kg/day.

**Q.** And the NOAEL (rabbit [6])?
**A.** Its NOAEL is 5 mg/kg/day.

**Q.** What about the LEL (mouse; systemic / organ weight / liver / nos) of the same molecule?
**A.** Its LEL is 75 mg/kg/day.

**Q.** And the NEL (mouse; systemic / organ weight / liver / nos + systemic / organ weight / kidney / nos + systemic / pathology microscopic / liver / hypertrophy)?
**A.** The NEL was 14.6 mg/kg/day.

**Q.** And the LOAEL (mouse; [17])?
**A.** The LOAEL was 223 mg/kg/day.

**Q.** And the NOAEL (mouse; [17])?
**A.** The NOAEL was 75 mg/kg/day.

**Q.** And the LEL (dog [7]; [18])?
**A.** The LEL was 2.5 mg/kg/day.

**Q.** What about the NEL (dog [7]; [18]) of the same molecule?
**A.** Its NEL is under 2.5 mg/kg/day.

**Q.** What about the LOAEL (dog [7]; [19]) of the same molecule?
**A.** Its LOAEL is over 37.5 mg/kg/day.

**Q.** And the NOAEL (dog [7]; [19])?
**A.** The NOAEL was at least 37.5 mg/kg/day.

**Q.** What about the LEL (rat [8]; systemic / clinical chemistry / aspartate aminotransferase (ast/sgot) / aspartate aminotransferase (ast/sgot)) of the same molecule?
**A.** The LEL was 16.1 mg/kg/day.

**Q.** And the LOAEL (rat [8]; [20])?
**A.** The LOAEL was 125 mg/kg/day.

**Q.** And the NEL (rat [8]; [20])?
**A.** Its NEL is 5.4 mg/kg/day.

**Q.** And the NOAEL (rat [8]; [20])?
**A.** Its NOAEL is 53.6 mg/kg/day.

**Q.** And the LEL (rat [9]; [10])?
**A.** The LEL was 69.6 mg/kg/day.

**Q.** What about the LOAEL (rat [9]; [10]) of the same molecule?
**A.** Its LOAEL is 69.6 mg/kg/day.

**Q.** What about the NEL (rat [9]; [21]) of the same molecule?
**A.** The NEL was 7.1 mg/kg/day.

**Q.** What about the NOAEL (rat [9]; [21]) of the same molecule?
**A.** Its NOAEL is 7.1 mg/kg/day.

**Q.** And the LEL (rat [9]; [22])?
**A.** The LEL was 69.6 mg/kg/day.

**Q.** What about the LOAEL (rat [9]; [22]) of the same molecule?
**A.** Its LOAEL is 69.6 mg/kg/day.

**Q.** And the NEL (rat [9]; [22])?
**A.** Its NEL is 7.1 mg/kg/day.

**Q.** What about the NOAEL (rat [9]; [22]) of the same molecule?
**A.** The NOAEL was 7.1 mg/kg/day.

**Q.** What about the LEL (rat [9]; [23]) of the same molecule?
**A.** The LEL was 141 mg/kg/day.

**Q.** And the LOAEL (rat [9]; [23])?
**A.** Its LOAEL is over 141 mg/kg/day.

**Q.** What about the NOAEL (rat [9]; [23]) of the same molecule?
**A.** The NOAEL was at least 141 mg/kg/day.

Reference: EPA's ToxRefDB 2
